Test results as given in patent US20120190004A1, “METHODS AND COMPOSITIONS FOR THE CRYOPRESERVATION OF DUCKWEED” (Biolex Therapeutics, Inc., priority 2009, published 2012).

Key:
Assay in all cases: Cryopreservation success rate after dormancy induction in sugar-supplemented medium
L. sp. Branson = assay type: in vivo; conditions: for Cryopreservation success, in words: summary of Tables 6 and 7
Experimental: (§1) Lemna minor duckweed plants were cultured on Schenk and Hildebrandt media with 20 mg/ml sucrose at an aerial temperature of between 21° C. and 30° C. and light levels ranging from 200 μM·M^−2·sec^−1 to 450 μM·M^−2·sec^−1 for 1 day up to 1 year. Three frond colonies (each frond colony comprised one or more daughter fronds attached to the mother frond) were aseptically transferred into a 2.0-mL cryovial containing a 900 μL solution of Schenk and Hildebrandt media, […] step. The frond colonies were incubated in this sugar solution for 21-30 days. Each 24-hour photoperiod was comprised of fluctuations in temperature and light levels. Specifically, the daytime hours consisted of culturing the duckweed frond colony at an aerial temperature of 10° C. with a light level of about 25 μM·M^−2·sec^−1 to about 50 μM·M^−2·sec^−1 for a duration of 3 hours, followed by an aerial temperature of 15° C. at a light level of about 25 μM·M^−2·sec^−1 to about 75 μM·M^−2·sec^−1 for a duration of 6 hours, and an aerial temperature of 10° C. with a light level of about 25 μM^−2·sec^−1 to about 50 μM·M^−2·sec^−1 for a duration of 3 hours. During the nighttime hours of the 24-hour photoperiod, the duckweed frond colonies were cultured at an aerial temperature of 4° C. in the absence of light for a duration of 12 hours.
(§2) The duckweed frond colonies were dehydrated in a laminar flow hood in 900 μL of a cryoprotective solution, comprising 1.92 M DMSO, […], 3.26 M glycerol, and 0.4 M sucrose at pH 5.8. The cryovials were incubated in this solution at 4° C. for 30 minutes to 2 hours in the absence of light. Following the incubation, the cryoprotective solution was removed and replaced with 900 μL of fresh cryoprotective solution.
(§3) The duckweed frond colonies were frozen in a slow rate freezer according to the following freezing protocol. The cryovials containing the duckweed frond colonies were held at 4° C. and the temperature was lowered to −4° C. at 1° C. per minute, to −40° C. at 25° C. per minute, and then raised to −12° C. at 10° C. per minute. The temperature was again lowered to −40° C. at 1° C. per minute, to −90° C. at 10° C. per minute, and then lowered to −150° C. at 10° C. per minute. Once frozen, the vials containing the frond colonies were transferred to the vapor phase of liquid nitrogen for storage.
(§4) After up to 17 months in storage, the frozen duckweed frond colonies were thawed and recovered as follows. The vials containing the frozen duckweed frond colonies were transferred from the liquid nitrogen storage tank to a laminar flow hood and were thawed at room temperature for approximately ten minutes. The cryoprotective solution was removed and replaced with 900 μL of Schenk and Hildebrandt medium, supplemented with 1.2 M sucrose, followed by a ten minute incubation at room temperature. The 1.2 M sucrose was subsequently diluted by a series of five dilutions whereby 450 μL of the 1.2 M sucrose solution was removed and replaced with 450 μL of Schenk and Hildebrandt medium supplemented with 20 mg/ml sucrose. Following the serial dilutions, the frond colonies were transferred to a petri dish with Schenk and Hildebrandt medium, supplemented with 10 mg/ml sucrose and 1% (weight/volume) agar. The duckweed frond colonies were cultured at an aerial temperature of between 21° C. and 30° C. with light levels ranging from about 20 μM·M^−2·sec^−1 to about 100 μM·M^−2·sec^−1 for 7-14 days prior to calculating the success rate of the cryopreservation procedure.
(§5) The cryopreservation success rate was calculated by the total number of visible daughter fronds (or daughter fronds with viable tissue) to survive the freezing process and successfully reproduce new daughter fronds as a percentage of the total number of visible daughter fronds that were frozen. Viability of tissue or of daughter fronds was assessed by the presence of green tissue and the ability of these fronds or frond tissues to reproduce and generate new daughter fronds. […]

L. yungensis = assay type: in vivo, Lemna yungensis; conditions: for Cryopreservation success, number of surviving fronds: sugar 90 mg/ml; for Cryopreservation success, in words: summary of Tables 6 and 7; for Cryopreservation success rate: single sugars 90 mg/ml unless the label says 20 mg/ml, six sugar combo 15 mg/ml each
Sp. polyrrhiza = assay type: in vivo, Spirodela polyrrhiza; conditions: for Cryopreservation success rate: single sugars 90 mg/ml unless the label says 20 mg/ml, six sugar combo 15 mg/ml each; for Cryopreservation success, in words: summary of Tables 6 and 7
L. minor [1] = assay type: in vivo, Lemna minor; conditions: for Cryopreservation success rate: single sugars 90 mg/ml unless the label says 20 mg/ml, six sugar combo 15 mg/ml each; for Cryopreservation success, in words: summary of Tables 6 and 7
Experimental: (§6) Lemna minor duckweed plants were cultured on Schenk and Hildebrandt media with 20 mg/ml sucrose at an aerial temperature of between 21° C. and 30° C. and light levels ranging from […] for 1 day up to 1 year. Three frond colonies (each frond colony comprised one or more daughter fronds attached to the mother frond) were aseptically transferred into a 2.0-mL cryovial containing a 900 μL solution of Schenk and Hildebrandt media, supplemented with 15 mg/ml of each D-trehalose dihydrate, sucrose, D-sorbitol, D-raffinose pentahydrate, D-glucose, and D-mannitol for the dormancy-induction step. The frond colonies were incubated in this sugar solution for 21-30 days. Each 24-hour photoperiod was comprised of fluctuations in temperature and light levels. Specifically, the daytime hours consisted of culturing the duckweed frond colony at an aerial temperature of 10° C. with a light level of about 25 μM·M^−2·sec^−1 to about 50 μM·M^−2·sec^−1 for a duration of 3 hours, followed by an aerial temperature of 15° C. at a light level of about 25 μM·M^−2·sec^−1 to about 75 μM·M^−2·sec^−1 for a duration of 6 hours, and an aerial temperature of 10° C. with a light level of about 25 μM^−2·sec^−1 to about 50 μM·M^−2·sec^−1 for a duration of 3 hours. During the nighttime hours of the 24-hour photoperiod, the duckweed frond colonies were cultured at an aerial temperature of 4° C. in the absence of light for a duration of 12 hours.
as §2, §3, §4
(§7) The cryopreservation success rate was calculated by the total number of visible daughter fronds (or daughter fronds with viable tissue) to survive the freezing process and successfully reproduce new daughter fronds as a percentage of the total number of visible daughter fronds that were frozen. […]

IFN61-B2-101 line = assay type: in vivo, Lemna minor; conditions: sugars at two concentrations: 90 mg/ml (1X) and 270 mg/ml (3X)
Experimental: as §1, §2, §3, §4, §5

BAP01-B2-230 line = assay type: in vivo, Lemna minor; conditions: sugars at two concentrations: 90 mg/ml (1X) and 270 mg/ml (3X)
Experimental: as §6, §2, §3, §4, §7

L. minor [2] = assay type: in vivo, Lemna minor; conditions: sugars at two concentrations: 90 mg/ml (1X) and 270 mg/ml (3X)
[3] = first set of experiments, single sugars 90 mg/ml unless the label says 20 mg/ml, six sugar combo 15 mg/ml each, in Schenk and Hildebrandt media during dormancy induction
[4] = second set of experiments, single sugars 90 mg/ml unless the label says 20 mg/ml, six sugar combo 15 mg/ml each

SMILES | Cryopreservation success rate (L. sp. Branson; [3]) | Cryopreservation success rate (L. sp. Branson; [4]) | Cryopreservation success, in words (L. sp. Branson) | Cryopreservation success, number of surviving fronds (L. yungensis; first set of experiments) [frond] | Cryopreservation success, number of surviving fronds (L. yungensis; second set of experiments) | Cryopreservation success, in words (L. yungensis) | Cryopreservation success rate (Sp. polyrrhiza; first set of experiments) | Cryopreservation success rate (Sp. polyrrhiza; second set of experiments) | Cryopreservation success, in words (Sp. polyrrhiza) | Cryopreservation success rate (L. minor [1]; first set of experiments) | Cryopreservation success rate (L. minor [1]; second set of experiments) | Cryopreservation success, in words (L. minor [1]) | Cryopreservation success rate (L. yungensis; first set of experiments) [%] | Cryopreservation success rate (L. yungensis; second set of experiments) [%] | also measured
OC[C@@H](O)[C@@H](O)[C@H](O)[C@H](O)CO [Mannitol, mannitol] | 33.3% (6/18) | 28.6% (4/14) | low relative to the other sugars that were tested | 1 | 2 fronds | successfully cryopreserved | 50% (4/8) | 57.1% (4/7) | successfully cryopreserved | 0% (0/8) | 0% (0/14) | ineffective |  |  | 
O=C[C@H](O)[C@@H](O)[C@H](O)[C@H](O)CO [Glucose, glucose] | 88.5% (23/26) | 53.3% (8/15) |  |  |  |  | 0% (0/4) | 0% (0/4) |  | 5.9% (1/17) | 53.9% (7/13) | lower cryopreservation success rates | 0 | 0 | Cryopreservation success rate (L. sp. Branson; sugars at two concentrations: 90 mg/ml (1X) and 270 mg/ml (3X), listed as Glucose 1X): 0% (0/11); Cryopreservation success rate (L. sp. Branson; sugars at two concentrations: 90 mg/ml (1X) and 270 mg/ml (3X), listed as Glucose 3X): 0% (0/15); Cryopreservation success rate (IFN61-B2-101 line; listed as Glucose 1X): 5.3%; Cryopreservation success rate (IFN61-B2-101 line; listed as Glucose 3X): 0%; Cryopreservation success rate (BAP01-B2-230 line; listed as Glucose 1X): 0% (0/14); Cryopreservation success rate (BAP01-B2-230 line; listed as Glucose 3X): 0% (0/13); Cryopreservation success rate (L. minor [2]; listed as Glucose 1X): 0% (0/12); Cryopreservation success rate (L. minor [2]; listed as Glucose 3X): 0% (0/16)
OC[C@H]1O[C@H](OC[C@H]2O[C@H](O[C@]3(CO)O[C@H](CO)[C@@H](O)[C@@H]3O)[C@H](O)[C@@H](O)[C@@H]2O)[C@H](O)[C@@H](O)[C@H]1O [Raffinose, raffinose] | 100% (23/23) | 100% (17/17) |  |  |  |  | 0% (0/6) | 0% (0/12) |  | 100% (16/16) | 92.9% (13/14) | prefers | 0 | 0 | Cryopreservation success rate (L. sp. Branson; sugars at two concentrations: 90 mg/ml (1X) and 270 mg/ml (3X), listed as Raffinose 1X): 100% (20/20); Cryopreservation success rate (L. sp. Branson; sugars at two concentrations: 90 mg/ml (1X) and 270 mg/ml (3X), listed as Raffinose 3X): 0% (0/12); Cryopreservation success rate (IFN61-B2-101 line; listed as Raffinose 1X): 100%; Cryopreservation success rate (IFN61-B2-101 line; listed as Raffinose 3X): 26.7%; Cryopreservation success rate (BAP01-B2-230 line; listed as Raffinose 1X): 96.2% (25/26); Cryopreservation success rate (BAP01-B2-230 line; listed as Raffinose 3X): 0% (0/14); Cryopreservation success rate (L. minor [2]; listed as Raffinose 1X): 96% (24/25); Cryopreservation success rate (L. minor [2]; listed as Raffinose 3X): 0% (0/19)
OC[C@@H](O)[C@@H](O)[C@H](O)[C@@H](O)CO [Sorbitol, sorbitol] | 27.3% (6/22) | 16.7% (2/12) | low relative to the other sugars that were tested | 1 | 1 frond | successfully cryopreserved | 12.5% (1/8) | 25% (1/4) | successfully cryopreserved | 0% (0/13) | 0% (0/4) | ineffective |  |  | 
OC[C@H]1O[C@H](O[C@H]2O[C@H](CO)[C@@H](O)[C@H](O)[C@H]2O)[C@H](O)[C@@H](O)[C@@H]1O [Trehalose, trehalose] | 100% (20/20) | 100% (16/16) |  |  |  |  | 0% (0/4) | 0% (0/15) |  | 100% (17/17) | 85.7% (12/14) | prefers | 0 | 0 | Cryopreservation success rate (L. sp. Branson; sugars at two concentrations: 90 mg/ml (1X) and 270 mg/ml (3X), listed as Trehalose 1X): 100% (17/17); Cryopreservation success rate (L. sp. Branson; sugars at two concentrations: 90 mg/ml (1X) and 270 mg/ml (3X), listed as Trehalose 3X): 0% (0/17); Cryopreservation success rate (IFN61-B2-101 line; listed as Trehalose 1X): 93.8%; Cryopreservation success rate (IFN61-B2-101 line; listed as Trehalose 3X): 7.1%; Cryopreservation success rate (BAP01-B2-230 line; listed as Trehalose 1X): 85% (17/20); Cryopreservation success rate (BAP01-B2-230 line; listed as Trehalose 3X): 0% (0/12); Cryopreservation success rate (L. minor [2]; listed as Trehalose 1X): 100% (15/15); Cryopreservation success rate (L. minor [2]; listed as Trehalose 3X): 0% (0/12)
